Assay results: patent publication US6835563B1, “Compositions and methods for increasing cholesterol efflux and raising HDL ATP binding cassette transporter protein ABC1” (CV Therapeutics, priority 1999, dated 2004)

What was measured:
ABC1 protein = experiment: Cell-surface ABC1 protein by biotin labeling and immunoprecipitation; assay type: cell-based, human; settings: serum deprivation and cholesterol-loading (30 μg/ml, 48 h), normal and TD1 cells
Description: Cell-surface labeling and immunoprecipitation was used to determine whether increased expression of ABC1 protein in the plasma membrane is correlated with an increase in cholesterol efflux (FIG. 10). The relative amount of ABC1 on the cell surface was determined by cross-linking surface proteins on intact cells with the membrane-impermeable agent sulfo-NHS-biotin, followed by the steps of membrane solubilization, immunoprecipitation with ABC1 antibody, SDS-PAGE, and detection with streptavidin.
Both normal and TD1 cells were cultured under control conditions and conditions known to increase apolipoprotein-mediated cholesterol efflux (Oram, et al., J. Lip. Res., 40: 1769-1781 (1999)). […] Cholesterol-loaded cells were grown to confluence in DMEM/10% FBS and then incubated in DMEM/BSA for 48 hours with 30 μg/ml cholesterol plus 18 hours with no additives (cholesterol). […]
Detection of ABC1 Protein: The eluted biotinylated proteins were subjected to SDS-PAGE (6% gel; 150V, 5 hours) and transferred to nitrocellulose membrane (200 mA, 18 hours). The nitrocellulose was probed with streptavidin-horse radish peroxidase (Amersham Pharmacia, Piscataway, N.J.; Cat. #RPN 1231) diluted 300-fold and detected by enhanced chemiluminescence labeling (ECL) according to vendor's protocol (Amersham Pharmacia, Piscataway, N.J.). […]

normal fibroblasts = experiment: HDL- and apo A-I-mediated [3H]cholesterol efflux from normal fibroblasts; assay type: cell-based, human; settings: HDL 40 μg protein/ml or apo A-I 10 μg/ml, up to 48 h
Description: (§1) Cell Cultures: Human fibroblasts were obtained from skin explants from two normal subjects (NL1) and three unrelated patients with Tangier disease (TD). TD1 cells were obtained from a person with extremely low plasma HDL cholesterol and apo A-I levels and clinical symptoms typical of Tangier disease. […] TD3 cells were obtained from a person with Tangier disease who presented with orange tonsil remnants, asymmetrical motor neuropathy, plasma HDL cholesterol of 5 mg/dL, and LDL cholesterol of 16 mg/dL (Lawn et al., J. Clin. Invest., 104, R25-R31 (1999)). The normal cells and TD subject cells were immortalized as described in Oram et al., J. Lipid. Res., 40: 1769-1781 (1999). Briefly, the cells were transfected with amphotropic retroviruses containing vectors with inserts of human papillomavirus 16-oncogenes E6 and E7 and a neomycin resistance selectable marker. Control cells were infected with vector alone (mock-infected). Pooled cell populations were selected in the presence of G418 for two passages, after which G418 was excluded from the medium. Fibroblasts were used between the fifth and sixteenth passage (primary) or sixth and fourteenth passage (immortalized). The immortalized normal and TD cells were seeded into 16-mm wells or 35-mm dishes and grown to confluence in. Dulbecco's modified. Eagle's medium (DMEM) plus 10% fetal bovine serum (FBS) before experimental use. […]

TD fibroblasts = experiment: HDL- and apo A-I-mediated [3H]cholesterol efflux from Tangier disease fibroblasts; assay type: cell-based, human; settings: HDL 40 μg protein/ml or apo A-I 10 μg/ml, up to 48 h
Description: as §1

ABC1 mRNA [1] = experiment: ABC1 mRNA by quantitative RT-PCR in normal fibroblasts; assay type: cell-based, human; settings: apo A-I 10 μg/ml 18-24 h
Description: (§2) To determine whether ABC1 plays a rate-limiting role in cellular sterol efflux, the synthesis of ABC1 was measured under various cellular conditions related to cholesterol efflux processes. Specifically, normal fibroblasts and TD fibroblasts were individually exposed to conditions of excess cAMP, cholesterol, or Apo A-I. Cell cultures of normal skin fibroblasts and TD1 and TD2 fibroblasts were prepared as described in Example 1. The level of ABC1 mRNA was measured by RT-PCR. Cell cultures: Immortalized cell cultures of normal skin fibroblasts and TD1 and TD2 fibroblasts were prepared as described in Example 1. Cells were grown to subconfluence in DMEM/10% FBS before replacement with DMEM/BSA and the indicated additive for 24 or 48 hours. RNA was prepared as described in Example 2. RT-PCR: Quantitative PCR was carried out using the GeneAmp 5700 Sequence. Detection System (Perkin-Elmer Applied Biosystems, Foster City, Calif.). Briefly, 500 ng of DNase-treated mRNA was reverse transcribed using random hexamer primers at 2.5 μM. Approximately 5% of this reaction was amplified by PCR using the SYBR green core kit (PE. Applied Biosystems, Foster City, Calif.; Cat. #4304886) and human ABC1 primers […] […] The mRNA in each sample was quantitated by detecting the increase in fluorescence caused by SYBR green binding to the double-stranded amplification product generated during each PCR cycle. […]

ABC1 mRNA [2] = experiment: ABC1 mRNA by quantitative RT-PCR in TD1 and TD2 fibroblasts; assay type: cell-based, human; settings: apo A-I 10 μg/ml
Description: as §2

RAW 264.7 cells = experiment: Apo A-I-mediated cholesterol efflux from cholesterol-loaded RAW 264.7 macrophage cells; settings: control cells, apo A-I only
Description: Assay to Measure Lipid Efflux: Apo AI-mediated efflux of cholesterol and, phospholipid was assayed according to the method described in. […] RAW 264.7 cells were cholesterol-loaded through the scavenger receptor by 24-hour incubation with acetylated LDL as described in Smith et al., J. Biol. Chem., 271:30647-30655 (1996). Briefly, RAW 264.7 cells in 24-well dishes were cholesterol-loaded and labeled overnight in 0.5 ml of DMEM supplemented with 50 μl/ml 1M glucose, 10 μl/ml 200 mM glutamine and 2% BSA and with 50 μg/ml acetylated low density lipoprotein (AcLDL) and [^3H]-cholesterol which had been pre-incubated for 30 minutes at 37° C. with AcLDL to yield a final concentration of 0.33 μCi/ml [^3H]-cholesterol. Cells were subsequently washed five times with PBS containing 1% BSA and incubated overnight (16-18 hours) in DMEM/BSA to allow for equilibrium of cholesterol pools. After equilibrium of cholesterol pools, cells were rinsed four times with PBS/BSA and incubated for one hour at 37° C. with DMEM/BSA before the efflux incubations. Efflux medium (DMEM/BSA) containing either albumin alone (control), albumin plus HDL (40 μg protein/ml), or albumin plus apo A-I (10 μg/ml, Biodesign International, Kennebunk, Me.) was added and the cells were incubated for 4, 24, or 48 hours. […] The radioactivity found in the culture medium was measured by scintillation counting after a 15-minute centrifugation at 12,000 g. The radioactivity in the cells was measured by scintillation counting after solubilization in 0.5 ml of 0.2M NaOH (Smith et al., J. Biol. Chem., 271:30647-30655 (1996)) or extraction in hexane:isopropanol (3:2 v/v) as described in Francis, et al., J. Clin. Invest., 96, 78-87 (1995). […] The efflux of cholesterol or phospholipid was expressed as the percentage of tritiated lipid counts in the medium over the total tritiated lipid counts recovered from the cells and medium (cpm medium/cpm (medium+lysate)×100).
Briefly, RAW 264.7 cells suspended at a density of 1.25×10^5 cells/ml were grown in DMEM/10% FBS supplemented with pyruvate. After 24 hours, the medium was removed and replaced with DMEM/BSA plus radiolabeled cholesterol (1 μCi/ml ^3[H]-cholesterol) and 50 μg/ml of acetylated LDL for 24 hours. The cells were then maintained for 24 hours in equilibrium medium consisting of DMEM/BSA plus either apo A-I alone (20 μg/ml), apo A-I and 8-bromo 3′, 5′ cAMP (1 mM) or apo A-I and rolipram (50 μM).

Row | Compound | cell-surface expression of ABC1 (ABC1 protein) | efflux of [3H]-cholesterol on addition to albumin medium (normal fibroblasts) | efflux of [3H]-cholesterol on addition to albumin medium (TD fibroblasts) | ABC1 mRNA expression on subsequent exposure of cholesterol-loaded cells (ABC1 mRNA [1]) | ABC1 expression on exposure of cholesterol-loaded cells (ABC1 mRNA [2]; TD1 cells) | ABC1 expression on exposure of cholesterol-loaded cells (ABC1 mRNA [2]; TD2 cells) | cholesterol efflux (RAW 264.7 cells)
1 | CC(C)CCC[C@@H](C)[C@H]1CC[C@H]2[C@@H]3CC=C4C[C@@H](O)CC[C@]4(C)[C@H]3CC[C@]12C [cholesterol] | markedly increased | – | – | – | – | – | –
2 | apo A-I: apolipoprotein cholesterol acceptor (Biodesign International) | – | promoted the efflux | little or no effect | marked decrease | did not alter ABC1 expression | slightly increased ABC1 expression | 1890 c.p.m.
